In patent US8569495B2, “Anthelmintic agents and their use” (Intervet International B.V., priority 2007, dated 2013):
Where two headings read alike, the source gives them in different places.

Assays:
Haemonchus contortus [1] = test: Efficacy against Haemonchus contortus in sheep; assay type: in vivo; details: single treatment 35 days after infection, necropsy 7 days after treatment
Experimental: Anthelmintic effects of compounds of this invention were tested in vivo using Haemonchus contortus in sheep. The sheep were orally infected with approximately 5,000 third-stage larvae of Haemonchus contortus. Thirty-five days after infection, the sheep in the treatment groups were treated once orally or subcutaneously at a dose of 2, 5, 10, and/or 50 mg per kg bodyweight. Seven days after treatment, the sheep were necropsied, and the worm burden in the abomasum was determined. The efficacy was defined as the reduction of the mean worm count in the infected sheep of the treatment groups in comparison to the infected sheep in the untreated negative control group.

[2] = system: Trichostrongylus colubriformis; test: Efficacy against Trichostrongylus colubriformis in cattle; assay type: in vivo; details: 10 mg/kg, oral, single treatment 32 days after infection, necropsy 7 days after treatment
Experimental: (§1) Anthelmintic effects of compounds of this invention were tested in vivo using Haemonchus contortus and Trichostrongylus colubriformis in cattle. The cattle were orally infected with approximately 10,000 third-stage larvae of Haemonchus contortus and approximately 30,000 third-stage larvae of Trichostrongylus colubriformis. Thirty-two days after infection, the cattle in the treatment group were treated once orally with the compound of Example 11 at a dose of 10 mg/kg bodyweight. Seven days after treatment, the cattle were necropsied, and the worm burden in the abomasum and the small intestine was determined. The efficacy was defined as the reduction of the mean worm count in the infected cattle of the treatment group in comparison to the infected cattle in the untreated negative control group.

Haemonchus contortus [3] = test: Efficacy against Haemonchus contortus in cattle; assay type: in vivo; details: 10 mg/kg, oral, single treatment 32 days after infection, necropsy 7 days after treatment
Experimental: as §1

[4] = system: Haemonchus contortus (L4), isolate resistant to benzimidazoles and ivermectin and anthelmintic-sensitive isolate; test: In vitro resistance-breaking activity against Haemonchus contortus L4, resistant versus sensitive isolate (MEC); details: isolate resistant to benzimidazoles and ivermectin vs sensitive isolate
Experimental: Anthelmintic resistance-breaking effects of compounds of this invention were tested in vitro using larval stage 4 (“L4”) of the parasitic nematode species Haemonchus contortus (Barber's pole worm in ruminants). One isolate of Haemonchus contortus with a resistance to benzimidazoles and ivermectin was tested in comparison to the anthelmintic-sensitive isolate of Haemonchus contortus. When conducting these experiments, various concentrations of the compounds were incubated in 96-well microtiter plates. Parasites were then distributed at 20 larvae per well. The anthelmintic effects were classified by microscopic examination. The microscopic examination included assessing mortality, damage, motility, progression of development, and neutral red uptake by the larvae in comparison to a DMSO-control and standard anthelmintics. The anthelmintic effects were defined by the minimum effective concentration (“MEC”).

Haemonchus contortus [5] = test: Efficacy against Haemonchus contortus in jirds; assay type: in vivo, jirds (Meriones unguiculatus); details: single treatment 10 days after infection, necropsy 3 days after treatment
Experimental: Anthelmintic effects of compounds of this invention were tested in vivo using Haemonchus contuortus in jirds (Meriones unguiculatus). The jirds were orally infected with approximately 750-3,000 third-stage larvae of Haemonchus contortus. Ten days after infection, the jirds in the treatment groups were treated once orally or subcutaneously at a dose of 2, 10, and/or 50 mg per kg bodyweight. Three days after treatment, the jirds were necropsied, and the larvae burden in the stomach was determined. The efficacy was defined as the reduction of the mean larvae count in the jirds of the treatment groups in comparison to the infected jirds in the untreated negative control group. All the compounds of this invention tested using this protocol reduced the Haemonchus contortus count in both the oral and subcutaneous experiments.

[6] = system: Ascaridia galli (L3) and Oesophagostomum dentatum (L3 and L4); test: In vitro anthelmintic activity against larval stages of Ascaridia galli and Oesophagostomum dentatum (MEC); details: Ascaridia galli, in vitro, A. galli L3, O. dentatum L3 and L4, 20 larvae per well, microscopic examination
[7] = read-out: minimum effective concentration (MEC) against two or more of the tested nematodes
[8] = read-out: minimum effective concentration (MEC) against one or more of the tested nematodes

CN(c1ccc([N+](=O)[O-])c(C(F)(F)F)c1)[C@H]1CC[C@H](OCC(=O)N2CCN(c3ccc(C(F)(F)F)cc3)CC2)CC1 [Example 12, 2-{trans-4-[methyl(4-nitro-3-trifluoromethyl-phenyl)-amino]-cyclohexyloxy}-1-[4-(4-trifluoromethyl-phenyl)-piperazin-1-yl]-ethanone]
% Reduction in H. contortus count (Haemonchus contortus [1]; 10 mg/kg, oral): 53% | % Reduction in H. contortus count (Haemonchus contortus [1]; 10 mg/kg, subcutaneous): 0%

O=C(CO[C@H]1CC[C@H](Nc2ccc([N+](=O)[O-])c(C(F)(F)F)c2)CC1)N1CCN(c2ccc(C(F)(F)F)cc2)CC1 [Example 11, 2-[trans-4-(4-nitro-3-trifluoromethyl-phenylamino)-cyclohexyloxy]-1-[4-(4-trifluoromethyl-phenyl)-piperazin-1-yl]-ethanone]
Efficacy against T. colubriformis (reduction of the mean worm count) [2]: 99% | % Reduction in H. contortus count (Haemonchus contortus [1]; 2 mg/kg, oral): 0% | % Reduction in H. contortus count (Haemonchus contortus [1]; 5 mg/kg, oral): 95% | % Reduction in H. contortus count (Haemonchus contortus [1]; 10 mg/kg, oral): 100% | Efficacy against H. contortus (reduction of the mean worm count) (Haemonchus contortus [3]): 98% | activity against the resistant isolate compared with the sensitive isolate of Haemonchus contortus [4]: same activity | % Reduction in H. contortus count (Haemonchus contortus [5]; 2 mg/kg, oral): 84% | % Reduction in H. contortus count (Haemonchus contortus [5]; 2 mg/kg, subcutaneous): 69% | % Reduction in H. contortus count (Haemonchus contortus [5]; 50 mg/kg, oral): 98% | % Reduction in H. contortus count (Haemonchus contortus [5]; 50 mg/kg, subcutaneous): 99%

CN(CC1CCN(c2ccc(C(F)(F)F)cc2)CC1)C(=O)[C@H]1CC[C@H](Nc2ccc([N+](=O)[O-])c(C(F)(F)F)c2)CC1 [Example 57, trans-N-methyl-4-(4-nitro-3-(trifluoromethyl)phenylamino)-N-((1-(4-(trifluoromethyl)phenyl)piperidin-4-yl)methyl)cyclohexanecarboxamide]
% Reduction in H. contortus count (Haemonchus contortus [1]; 10 mg/kg, oral): 83% | % Reduction in H. contortus count (Haemonchus contortus [1]; 10 mg/kg, subcutaneous): 0% | activity against the resistant isolate compared with the sensitive isolate of Haemonchus contortus [4]: same activity

CC(C)(C)c1ccc(N2CCN(C(=O)CO[C@H]3CC[C@H](Nc4ccc([N+](=O)[O-])c(C#N)c4)CC3)CC2)cc1 [Example 248]
minimal effective concentration [6, 7]: < 1 µM

N#Cc1ccc(N2CCN(C(=O)COC3CCC(Nc4ccc([N+](=O)[O-])c(C(F)(F)F)c4)CC3)CC2)cc1C(F)(F)F (stereo not shown) [Example 64]
minimal effective concentration [6, 7]: < 1 µM

CC(C)(C)c1ccc(N2CCN(C(=S)COC3CCC(Nc4ccc(Cl)c(C(F)(F)F)c4)CC3)CC2)cc1 (stereo not shown) [Example 215]
minimal effective concentration [6, 7]: < 1 µM

CN(CC1CCN(c2ccc(C(C)(C)C)cc2)CC1)C(=O)C1CCC(Nc2ccc([N+](=O)[O-])c(C(F)(F)F)c2)CC1 (stereo not shown) [Example 132]
minimal effective concentration [6, 8]: < 1 µM | minimal effective concentration [6, 7]: < 1 µM

CC(C)(C)c1ccc(N2CCN(C(=S)COC3CCC(Nc4ccc(OC(F)(F)F)c(C(F)(F)F)c4)CC3)CC2)cc1 (stereo not shown) [Example 206]
minimal effective concentration [6, 8]: < 1 µM

CCOc1ccc(N2CCC(CNC(=O)C3CCC(Nc4ccc([N+](=O)[O-])c(C(F)(F)F)c4)CC3)CC2)cc1 (stereo not shown) [Example 125]
minimal effective concentration [6, 8]: < 1 µM

CC(C)(C)c1ccc(N2CCN(C(=O)COC3C=C[C@@H](Nc4ccc([N+](=O)[O-])c(C(F)(F)F)c4)C3)CC2)cc1 (stereo partly shown) [Example 259]
minimal effective concentration [6, 7]: < 1 µM

CCCc1ccc(C2CCN(C(=O)COC3CCC(Nc4ccc(C#N)c(C(F)(F)F)c4)CC3)CC2)cc1 (stereo not shown) [Example 168]
minimal effective concentration [6, 7]: < 1 µM

O=[N+]([O-])c1ccc(NC2CCC(OCCN3CCN(c4ccc(C(F)(F)F)cc4)CC3)CC2)cc1C(F)(F)F (stereo not shown) [Example 119]
minimal effective concentration [6, 8]: < 1 µM

N#Cc1ccc(NC2CCC(OCC(=O)N3CCCN(c4ccc(SC(F)(F)F)cc4)CC3)CC2)cc1C(F)(F)F (stereo not shown) [Example 160]
minimal effective concentration [6, 7]: < 1 µM

O=C(COC1CCC(Nc2ccc([N+](=O)[O-])c(C(F)(F)F)c2)CC1)N1CCCN(c2ccc(Cl)cc2)CC1 (stereo not shown) [Example 150]
minimal effective concentration [6, 8]: < 1 µM | minimal effective concentration [6, 7]: < 1 µM
